In the NIST ThermoML archive (doi:10.1016/j.jct.2018.09.011):
Several values for one entry are separate records, joined by “and”; a condition that tells them apart may be missing. Identical values can stand only once.

What was measured:
[1] = Molar enthalpy of transition or fusion; conditions: Crystal; DSC
[2] = Crystal; for vapor or sublimation pressure: Calculated from knudsen effusion weight loss; for Normal melting temperature: DTA

Nc1ccc(O)cc1 [4-hydroxybenzenamine]
Conditions | Molar enthalpy of transition or fusion [kcal/mol] | Normal melting temperature [°C]
[1] | 7.51 | –
[2] | – | 186.89

[2]
Conditions | vapor or sublimation pressure
337.15 K | 0.000113 kPa and 0.000111 kPa
339.54 K | 0.000144 kPa and 0.000147 kPa and 0.000145 kPa
341.2 K | 0.000179 kPa and 0.000175 kPa and 0.000177 kPa
343.15 K | 0.000223 kPa and 0.000221 kPa and 0.000219 kPa
345.47 K | 0.000284 kPa and 0.00028 kPa and 0.000287 kPa
347.19 K | 0.000348 kPa and 0.000342 kPa and 0.000344 kPa
349.15 K | 0.000425 kPa and 0.000418 kPa and 0.000431 kPa
351.21 K | 0.000527 kPa and 0.000533 kPa and 0.00053 kPa
353.2 K | 0.000653 kPa and 0.000634 kPa and 0.000645 kPa
355.14 K | 0.000787 kPa and 0.000786 kPa and 0.000796 kPa
357.46 K | 0.001018 kPa and 0.001002 kPa and 0.001003 kPa
359.19 K | 0.001205 kPa and 0.001211 kPa and 0.001198 kPa

Nc1ccccc1O [2-hydroxybenzenamine]
Conditions | Molar enthalpy of transition or fusion [kcal/mol] | Normal melting temperature [°C]
[1] | 7.79 | –
[2] | – | 174.38

[2]
Conditions | vapor or sublimation pressure
321.12 K | 0.000107 kPa and 0.000105 kPa and 0.000106 kPa
323.43 K | 0.000141 kPa and 0.000138 kPa and 0.000139 kPa
325.14 K | 0.00017 kPa and 0.000172 kPa
327.13 K | 0.000212 kPa and 0.000214 kPa
329.3 K | 0.000271 kPa and 0.000277 kPa and 0.000275 kPa
331.21 K | 0.000343 kPa and 0.000335 kPa and 0.00034 kPa
333.13 K | 0.000423 kPa and 0.000419 kPa
335.33 K | 0.000534 kPa and 0.000541 kPa and 0.000538 kPa
337.2 K | 0.000661 kPa and 0.000654 kPa and 0.000657 kPa
339.14 K | 0.000824 kPa and 0.000835 kPa and 0.000826 kPa
341.33 K | 0.001036 kPa and 0.001041 kPa and 0.001043 kPa
343.26 K | 0.00129 kPa and 0.001263 kPa
